Experiment [1] relates to ethylene-induced epinasty in Patio variety tomato plants. As to the kind of experiment: Tomato epinasty test, spray application treatment. Type of experiment: in vivo. The settings on record: spray 10 ppm in 10% acetone/90% water, 0.05% Silwett L-77; 10 ppm ethylene; scale 0 to 10 (10 = complete protection). As to the method:
(§1) Objective: The test procedure is designed to determine the ability of an experimental compound to block the epinastic growth response induced by ethylene in tomato plants when the experimental compound is administered either as a volatile gas or as a component of a spray solution.
(§2) Treatment chambers are of an appropriate size for the test plants and are airtight. Each is fitted with a reusable septum to be used for injection of ethylene. Test plants are Patio variety tomato seedlings planted two plants per three inch square plastic pot.
Spray application treatment entails using a DeVilbiss atomizer to completely cover all foliage and stems of two pots of Patio var. tomato plants with the appropriate amount of experimental compound dissolved in 10% acetone/90% water with 0.05% Silwett L-77 surfactant. Plants are air-dried in a drying hood for four hours then transferred to a 4.8 L polystyrene chamber which is sealed.
Ethylene gas equal to 10 ppm v/v final concentration is injected into the sealed chamber. Sixteen hours later the chambers are opened in an exhaust hood, allowed to air and the plants scored visually for the degree of protection against ethylene-induced epinasty conferred by the experimental compound when compared to ethylene treated and untreated controls on a scale of 0 to 10. A rating of 10 means complete protection. A rating of 0 means no protection from the effects of ethylene.

The test system is the same in experiment [2]. The experiment can be described thus: Tomato epinasty test, volatile gas treatment. Type of experiment: in vivo. The settings on record: for Gas @ 10 ppm: visual rating of protection against ethylene-induced epinasty: gas 10 ppm v/v, 10 ppm ethylene, scale 0 to 10 (10 = complete protection); for Gas @ 1000 ppm: visual rating of protection against ethylene-induced epinasty: gas 1000 ppm v/v, 10 ppm ethylene after 4 h, scored 16 h later, scale 0 (no protection) to 10 (complete protection). As to the method:
as §1, §2
Volatile gas treatment entails placing two pots of Patio var. tomatoes into a polystyrene 4.8 L volume treatment chamber along with one-half (upper or lower section) of a 50×9 mm plastic Petri dish containing a Gelman filter pad. The appropriate amount of experimental compound, dissolved in 1.0 ml acetone, is pipetted onto the filter pad and the chamber immediately sealed. Four hours later ethylene gas equal to 10 ppm v/v final concentration is injected into the sealed chamber. Sixteen hours later the chambers are opened in an exhaust hood, allowed to air and the plants scored visually for the degree of protection against ethylene-induced epinasty conferred by the experimental compound when compared to ethylene treated and untreated controls on a scale of 0 to 10. A rating of 10 means complete protection. A rating of 0 means no protection from the effects of ethylene. Gas treatment concentrations are volume/volume.

Take `O=C(OCCC1=CC1)c1cnc(Cl)c(Cl)c1` [Compound 50]: the “Spray @10 ppm: visual rating of protection against ethylene-induced epinasty” value (“Spray @10 ppm: visual rating” below) in experiment [1] was 0. In addition, in experiment [2], the “Gas @ 10 ppm: visual rating of protection against ethylene-induced epinasty” value (from here on “Gas @ 10 ppm: visual rating”) was found to be 0 and the “Gas @ 1000 ppm: visual rating of protection against ethylene-induced epinasty” value (from here on “Gas @ 1000 ppm: visual rating”) turned out to be 9.
`C[Si](C)(CCCCCCC1=CC1)c1ccccc1` [Compound 4, 1-(6-(Phenyldimethylsilyl)-hexyl)-cyclopropene]: the “Spray @10 ppm: visual rating” value in experiment [1] was 10. Further, the “Gas @ 10 ppm: visual rating” value in experiment [2] turned out to be 4.
`C1=C(CCCC2OCCO2)C1` [Compound 33]: the “Spray @10 ppm: visual rating” value in experiment [1] is reported as 0. In experiment [2], the “Gas @ 10 ppm: visual rating” value was 8.
With `CC(=O)OCOC(=O)CCC1=C(Br)C1` [Compound 75], the “Spray @10 ppm: visual rating” value in experiment [1] stood at 0. Also, in experiment [2], the “Gas @ 10 ppm: visual rating” value worked out at 10.
Regarding `O=C(O)CCC1=C(Br)C1` [Compound 77], the “Spray @10 ppm: visual rating” value in experiment [1] is 2. Besides, the “Gas @ 10 ppm: visual rating” value in experiment [2] was determined as 8.
Regarding `CCOC(=O)CCC1=C(Br)C1` [Compound 76], in experiment [1], the “Spray @10 ppm: visual rating” value amounted to 0. Besides, in experiment [2], the “Gas @ 10 ppm: visual rating” value came to 10.
For `CC1(c2ccccc2)C=C1` [Compound 6, 3-Methyl-3-phenylcyclopropene], the “Spray @10 ppm: visual rating” value in experiment [1] is 1. Besides, in experiment [2], the “Gas @ 10 ppm: visual rating” value amounted to 2.5 and the “Gas @ 1000 ppm: visual rating” value was determined as 7.
With `CCCCCCCCC1=CC1C(=O)O` (centres unmarked) [Compound 78, 1-Octyl-3-carboxy-cyclopropene], in experiment [1], the “Spray @10 ppm: visual rating” value is reported as 0. Further, in experiment [2], the “Gas @ 10 ppm: visual rating” value stood at 0 and the “Gas @ 1000 ppm: visual rating” value was 5. Besides, the “Gas @ 500 ppm: rating of protection against epinasty” value in experiment [2] (gas 500 ppm, scale 0 to 10) is on record as 10.
On to `O=S(=O)(OCCC1=CC1)c1ccccc1` [Compound 10, 2-(2-Benzenesulfonyloxyethyl)-cyclopropene], for which the “Spray @10 ppm: visual rating” value in experiment [1] is reported as 10. The “Gas @ 10 ppm: visual rating” value in experiment [2] is on record as 10.
With `CC1=C(Cc2ccccc2)C1` [Compound 8, 1-methyl-2-benzylcyclopropene], the “Spray @10 ppm: visual rating” value in experiment [1] amounted to 0. In addition, in experiment [2], the “Gas @ 10 ppm: visual rating” value stood at 0 and the “Gas @ 1000 ppm: visual rating” value worked out at 10.
`CCOP(=S)(OCC)SCC1=C(CC)C1` [Compound 84, 1-(Diethoxy-thiophosphorylthiomethyl)-2-ethylcyclopropene]: in experiment [1], the “Spray @10 ppm: visual rating” value stood at 0. Moreover, in experiment [2], the “Gas @ 10 ppm: visual rating” value stood at 0 and the “Gas @ 1000 ppm: visual rating” value is given as 10.
For `C1=C(CC2CCCC2)C1` [Compound 31], the “Spray @10 ppm: visual rating” value in experiment [1] was 7.5. In addition, in experiment [2], the “Gas @ 10 ppm: visual rating” value was 9.
For `C1=C(CCC2CCCCC2)C1` [Compound 21], in that order: 10 and 10.
Consider `Clc1ccc(CC2=CC2)cc1` [Compound 1, 1-Chloro-4-cycloprop-1-enylmethyl-benzene], for which, in experiment [1], the “Spray @10 ppm: visual rating” value turned out to be 10. The “Gas @ 10 ppm: visual rating” value in experiment [2] is 10.
Turning to `CS(=O)(=O)OCCCCC1=CC1` [Compound 85, 1-(4-Methanesulfonyloxybutyl)-cyclopropene], the “Spray @10 ppm: visual rating” value in experiment [1] came to 0. Moreover, in experiment [2], the “Gas @ 10 ppm: visual rating” value is given as 0 and the “Gas @ 1000 ppm: visual rating” value is recorded as 10.
For `Cc1ccc(SCCCCCCCCC2=CC2)cc1` [Compound 57, 1-(4-Methylphenylthiooctyl)-cyclopropene], the “Spray @10 ppm: visual rating” value in experiment [1] is listed as 2. In experiment [2], the “Gas @ 10 ppm: visual rating” value is 0 and the “Gas @ 1000 ppm: visual rating” value turned out to be 10.
For the compound `CC1(Cc2ccccc2)C=C1` [Compound 20], the “Spray @10 ppm: visual rating” value in experiment [1] is given as 0. Besides, in experiment [2], the “Gas @ 10 ppm: visual rating” value is listed as 0 and the “Gas @ 1000 ppm: visual rating” value is 7.
As to `CC[Si](CC)(CC)C1=C(C)C1` [Compound 81, 1-Triethylsilyl-2-methylcyclopropene], the “Spray @10 ppm: visual rating” value in experiment [1] is given as 0. For the same compound, in experiment [2], the “Gas @ 10 ppm: visual rating” value is given as 0 and the “Gas @ 1000 ppm: visual rating” value was 10.
In the case of `CS(=O)(=O)Oc1ccc(C(=O)OCCCCCCCC2=CC2)cc1` [Compound 53, 1-(7-(4-Methanesulfonyloxyphenyl)-carbonyloxyheptyl)-cyclopropene], the “Spray @10 ppm: visual rating” value in experiment [1] was determined as 0. Further, in experiment [2], the “Gas @ 10 ppm: visual rating” value came out at 0 and the “Gas @ 1000 ppm: visual rating” value is reported as 10.
In the case of `C1=C(CCSc2ccccn2)C1` [Compound 35], in experiment [1], the “Spray @10 ppm: visual rating” value came out at 9. For the same compound, in experiment [2], the “Gas @ 10 ppm: visual rating” value is 10.
Regarding `CCCCCCCC1=C(C)C1` [Compound 74, 1-Heptyl-2-methyl-cyclopropene], the “Spray @10 ppm: visual rating” value in experiment [1] worked out at 0. In addition, in experiment [2], the “Gas @ 10 ppm: visual rating” value stood at 0 and the “Gas @ 1000 ppm: visual rating” value was determined as 10.
Regarding `C1=C(Cc2cccs2)C1` [Compound 2, 1-(2-Thienyl)methyl-cyclopropene], in experiment [1], the “Spray @10 ppm: visual rating” value stood at 7. In experiment [2], the “Gas @ 10 ppm: visual rating” value is recorded as 10.
On to `O=C(OCCC1=CC1)c1ccc(-n2cccc2)cc1` [Compound 62], for which the “Spray @10 ppm: visual rating” value in experiment [1] is 0. Also, the “Gas @ 10 ppm: visual rating” value in experiment [2] is listed as 0. In addition, in experiment [2] (gas 509 ppm (in cell), scale 0 to 10), the “Gas @ 509 ppm: rating of protection against epinasty” value was 10(@509.
With `CC1(COc2ccccc2)C=C1` [Compound 7, 3-Methyl-3-Phenoxymethylcycloprop-2-ene], the “Spray @10 ppm: visual rating” value in experiment [1] stood at 2. In addition, in experiment [2], the “Gas @ 10 ppm: visual rating” value is given as 4 and the “Gas @ 1000 ppm: visual rating” value was found to be 10.
For `COc1cccc(C(O)C2=C(C)C2)c1` (centres unmarked) [Compound 39, 1-Methyl-2-(hydroxy(3-methoxyphenyl)methyl)cyclopropene], in that order: 0, 2 and 10.
Take `O=S(=O)(OCCCCCCCCC1=CC1)c1ccccc1` [Compound 56, 1-(8-Benzenesulfonyloxyoctyl)-cyclopropene]: the “Spray @10 ppm: visual rating” value in experiment [1] is 10. Further, the “Gas @ 10 ppm: visual rating” value in experiment [2] amounted to 5.
As for `C1=C(CCCCCCCn2cccn2)C1` [Compound 32], the “Spray @10 ppm: visual rating” value in experiment [1] is on record as 10. Further, in experiment [2], the “Gas @ 10 ppm: visual rating” value is listed as 3 and the “Gas @ 1000 ppm: visual rating” value came out at 10.
With `C1=C(CCCC2OCCCO2)C1` [Compound 3, 2-(3-Cycloprop-1-enyl-propyl)-[1,3]dioxane], the “Spray @10 ppm: visual rating” value in experiment [1] stood at 0. In experiment [2], the “Gas @ 10 ppm: visual rating” value is listed as 8.
For the compound `Cc1ccc(C(=O)OCCCCC2=CC2)cc1` [Compound 44, 1-(4-Methylphenylcarbonyloxybutyl)-cyclopropene], the “Spray @10 ppm: visual rating” value in experiment [1] was determined as 0. Further, in experiment [2], the “Gas @ 10 ppm: visual rating” value was determined as 0 and the “Gas @ 1000 ppm: visual rating” value was determined as 7.
Regarding `C1=C(CC2CCCCCC2)C1` [Compound 22], the “Spray @10 ppm: visual rating” value in experiment [1] turned out to be 10. In addition, the “Gas @ 10 ppm: visual rating” value in experiment [2] is 9.
On to `CCCCCCCCC1=C(Br)C1` [Compound 71, 1-Bromo-2-octyl-cyclopropene], for which the “Spray @10 ppm: visual rating” value in experiment [1] is 3. For the same compound, in experiment [2], the “Gas @ 10 ppm: visual rating” value is listed as 1 and the “Gas @ 1000 ppm: visual rating” value amounted to 10.

The values are drawn from patent US20110190137A1, “METHOD TO INHIBIT ETHYLENE RESPONSES IN PLANTS” (priority 2003, published 2011).
